Patent US12364755B2, “Method for obtaining globally activated monocytes” (Transimmune AG, priority 2014, dated 2025)
No end group written: not given here.

Assays:
Type in all cases: cell-based, human
[1] = tested on: GILZ; assay: siRNA-mediated knockdown of GILZ in MoDC; conditions: siRNA experiments, ELISA
Protocol: Silencer select pre-designed and validated GILZ siRNA (Invitrogen), with off-target prediction algorithms, was used to knockdown GILZ expression. Mo-DC were transfected using Lipofectamine RNAiMAX Reagent (Invitrogen). RNAi duplex and lipofectamine reagent were incubated together for 20 min, then added to MoDC cultures and incubated for 2 hr at 37° C. and 5% CO2. Transfected MoDC were treated in an identical fashion as described for the MoDC/lymphocyte co-cultures. MoDC were also transfected with scramble siRNA.
RNA was isolated from CD11c MoDC using QIAShredder columns (QIAGEN) and the RNeasy Mini Kit (QIAGEN) with on-column Dnase I treatment (QIAGEN). RNA yield and purity were assessed using a NanoDrop ND-1000 spectrophotometer. cDNA was obtained using the High Capacity cDNA Reverse Transcription Kit (Applied Biosystems) in a 96-well thcrmocycicr (MJ Research PTC-200). TaqMan real-time PCR was used to detect transcripts of GILZ, CD80, and CD86. Primers and probes were obtained as pre-designed and validated Taqman Gene Expression Assays (Applied Biosystems). SYBR green real-time PCR (Applied Biosystems) was used to detect transcripts of IL-12, IL-10, IL-6, TNF-alpha, and TGF-β. Primers were designed to span intron junctions using Primer3Plus. Primer melting curves were obtained to confirm a single product. HPRT-1 and GAPDH were used as reference genes. Samples were run in triplicate on a 7500 Real Time PCR System (Applied Biosystems). The delta-delta C(t) method was used to calculate the fold change.
(§1) Culture supernatants were analyzed in a multiplex format utilizing magnetic beads to IL-6, IL-8, IL-10, IL-12p70, TNF-a, RANTES, MCP-1, and MIP-1β (BioRad Laboratories). For siRNA experiments, supernatants were analyzed with enzyme-linked immunosorbent assay (ELISA) kits for IL-10 (R&D Systems) and IL-12p70 (Enzo Life Science). All samples and standards were run in duplicate and analyzed using the LUMINEX 200 (LUMINEX), or the BioTek EL800 (BioTek).

[2] = tested on: MoDC; assay: Cytokine quantification in culture supernatants after LPS stimulation; conditions: for IL-10 to IL-12p70 ratio: after LPS stimulation, untreated MoDC 6.7
Protocol: (§2) Non-adherent cells (purity: 66.0±4.5% CD3^+) removed during plastic adherence will now be generally referred to as lymphocytes. Lymphocytes were treated with 8-MOP (100 ng/mL) and UVA (1 J/cm^2), washed with PBS, and co-cultured in complete media at 37° C. and 5% CO2 with either PUVA-treated or untreated-MoDC in a ratio of 5 or 10 lymphocytes to 1 MoDC. MoDC treated for 24 hr with 100 nM dexamethasone (Sigma) served as the positive control group. After 24 hr, cells were harvested and MoDC were re-purified.
as §1

[3] = tested on: GILZ; assay: GILZ mRNA expression in CD11c+ MoDC (real-time PCR); conditions: for GILZ up-regulation, fold change relative to untreated MoDC cultured alone: 24 hr after co-culture/treatment (FIG. 13B)
Protocol: The tubes emitted UVA light ranging from 320 to 400 nm. The UVA irradiance (power, W/m^2) was measured using a photodiode. […] Non-adherent cells (purity: 66.0±4.5% CD3^+) removed during plastic adherence will now be generally referred to as lymphocytes. […] RNA yield and purity were assessed using a NanoDrop ND-1000 spectrophotometer. cDNA was obtained using the High Capacity cDNA Reverse Transcription Kit (Applied Biosystems) in a 96-well thcrmocycicr (MJ Research PTC-200). TaqMan real-time PCR was used to detect transcripts of GILZ, CD80, and CD86. Primers and probes were obtained as pre-designed and validated Taqman Gene Expression Assays (Applied Biosystems). SYBR green real-time PCR (Applied Biosystems) was used to detect transcripts of IL-12, IL-10, IL-6, TNF-alpha, and TGF-β. Primers were designed to span intron junctions using Primer3Plus. Primer melting curves were obtained to confirm a single product. HPRT-1 and GAPDH were used as reference genes. Samples were run in triplicate on a 7500 Real Time PCR System (Applied Biosystems). The delta-delta C(t) method was used to calculate the fold change.

[4] = tested on: monocyte-platelet interactions; assay: Monocyte-platelet interactions in flow (receptor-ligand studies); conditions: wall shear stress 0.5 dyne/cm2; relative to P+RGD+ maximum
Protocol: Platelet-coated Vena8 channels were pre-treated with either 40 μg/ml anti-P-selectin (R&D Systems) or 40 μg/ml of an isotype control for 30 minutes at room temperature, then washed with 5× the volume RPMI. Mononuclear cell suspensions were pre-treated with either RGD or DGR peptides at a concentration of 2.5 mM. Video samples lasting 400 frames (26.3 seconds) were recorded 60 seconds after commencement of flow using a lower power field of view spanning 400 microns and centered at 7500 microns from the flow start point.

[5] = tested on: platelets; assay: Platelet adhesion to fibrinogen-coated plates in flow after peptide pre-treatment of platelets; conditions: platelets (PRP) pre-incubated with peptide 2 mM, 20 minutes
Protocol: (§3) Platelet adhesion experiments were performed using the Vena8 flow chamber described above. Fibrinogen and fibronectin (Sigma) were dissolved in PBS to a final concentration of 200 mcg/ml. Channels of the Vena8 chips were incubated at room temperature in a humidified chamber for 2 hours with the protein solution, autologous plasma, or PBS alone. The channels were washed with 5x the volume RPMI. Platelet-rich-plasma was then perfused through the protein-coated channel at the indicated shear-stress, held constant. For each channel, still images were acquired exactly 90 seconds into the experiment at 4 pre-defined low power fields located along the flow path (fields were centered at 2500, 7500, 12500, and 17500 microns from the start point of infusion).
(§4) Some experiments involved pre-treating platelet-rich-plasma with protein fragments prior to infusion through the channels. Small RGD peptides, containing the amino-acid sequence Arg-Gly-Asp-Ser; DRG peptides, contain the amino-acid sequence Ser-Asp-Gly-Arg; or fragment 400-411 of fibrinogen, containing the amino-acid sequence His-His-Leu-Gly-Gly-Ala-Lys-Gln-Ala-Gly-Asp-Val, were incubated at a concentration of 2 mM with PRP for 20 minutes at room temperature. The PRP was then perfused through the channels as previously described.

[6] = tested on: platelets; assay: Platelet adhesion to fibronectin-coated plates in flow after peptide pre-treatment of platelets; conditions: platelets (PRP) pre-incubated with peptide 2 mM, 20 minutes
Protocol: as §3, §4

[7] = tested on: monocytes; assay: Static co-culture of monocytes with platelets (DC differentiation); conditions: platelets activated with thrombin (2 units) vs not activated; 18 hours static culture
Protocol: When overnight culture was required, cells were centrifuged and resuspended in RPMI-1640 medium (GIBCO), supplemented with 15% AB serum (Gemini Bio-Products) to a final concentration of 5×10^6 cells/ml. Cells were cultured overnight for 18 hours in 12-well polystyrene tissue culture plates (2 ml per well) at 37° C. in 5% CO2.
Monoclonal antibodies for immunophenotyping included CD14 (LPS receptor; monocytes), CD11c (integrin subunit; monocytes and DC), HLA-DR (class II MHC molecule), CD83 (DC marker), CD62p (P-selectin; activated platelets), and CD61 (integrin subunit; platelets). Antibodies were obtained from Beckman Coulter (CD14, CD11c, HLADR, CD83) or Sigma (CD62p, CD61) and used at their pre-determined optimal dilutions. Background staining was established with appropriate isotype controls, and immunofluorescence was analyzed using a FC500 flow cytometer (Beckman Coulter). Two-color membrane staining was performed by adding the pre-determined optimal concentrations of both antibodies directly conjugated to FITC or PE and incubating for 20 min at 4° C., followed by washing to remove unbound antibodies. Combined membrane and cytoplasmic staining was performed following manufacturer's instructions for cell fixation and permeabilization (Intraprep kit, Beckman Coulter). […]

[8] = tested on: platelets; assay: Plasma protein influence on platelet adhesion to plates; conditions: plates pre-coated with protein; wall shear stress 0.2 to 6.0 dyne/cm^2
Protocol: as §3

[9] = tested on: lymphocytes; assay: Apoptosis of ECP-processed lymphocytes after overnight incubation; conditions: UVA-activated 8-MOP
[10] = tested on: lymphocytes; assay: Apoptosis of lymphocytes (Annexin-V/7-AAD)
Protocol: as §2, with “Lymphocytes” for “Non-adherent cells (purity: 66.0±4.5% CD3^+) removed during plastic adherence will now be generally referred to as lymphocytes. Lymphocytes”
(§5) Monoclonal antibodies included HLA-DR, CD80, CD83, CD3, CD86, CD14, CD11c and GILZ. Antibodies were obtained from Beckman-Coulter and eBioscience and were used at their pre-determined optimal dilutions. Apoptosis was assessed using the Annexin-V Apoptosis Detection Kit (eBioscience), with Annexin-V recognizing phosphatidylserine (PS) on the surface of apoptotic cells. 7-AAD substituted for PI as the cell viability dye. Cells displaying an Annexin-V^+/7-AAD^− phenotype were classified as early apoptotic cells, and cells displaying an Annexin-V^+/7-AAD^+ phenotype were classified as late apoptotic cells. Dual membrane and intracytoplasmic staining was performed using the lntraPrep fix and permeabilization kit (Beckman-Coulter). Background staining was established with appropriate isotype and fluorescence minus one controls. Immunofluorescence was analyzed using a FACSCalibur L (BD Biosciences) within 2 hr of fixation with 2% paraformaldehyde. A minimum of 10,000 events were collected for each group.

[11] = tested on: CD11c+ MoDC; assay: Apoptosis of CD11c+ MoDC (Annexin-V/7-AAD); conditions: 24 hr
Protocol: Cultures were incubated with 8-MOP (Uvadex, 20 μg/mL) for 30 min in the dark, and then irradiated with a desktop UVA light box containing a series of 12 linear fluorescent tubes. The tubes emitted UVA light ranging from 320 to 400 nm. The UVA irradiance (power, W/m^2) was measured using a photodiode. Given a measured irradiance and the absorption properties of the various components of the system, it was possible to determine the time (sec) needed to expose the cells to deliver a given dose of UVA radiation (J/cm^2).
as §5

[12] = 24 hr after LPS stimulation, multiplex immunoassay
[13] = 100 ng/mL 8-MOP and 1 J/cm^2 UVA, 24 hr

8-methoxypsoralen [8-MOP]
IL-10 to IL-12p70 ratio, non-transfected MoDC [1]: 8.4
IL-10 to IL-12p70 ratio, transfected with GILZ siRNA [1]: 2.9
production of IL-10 [2, 12]: increased production of IL-10
production of pro-inflammatory cytokines and chemokines [2, 12]: decreased production of all pro-inflammatory cytokines and chemokines tested, except TNF-α and IFN-γ
IL-10 to IL-12p70 ratio [2]: 38.7
GILZ up-regulation, fold change relative to untreated MoDC cultured alone [3]: 2.78 fold

Arg-Gly-Asp-Ser (RGDS; printed: Arg-Gly-Asp-Ser) [RGD peptides]
short-duration monocyte-platelet interactions (less than 3 seconds) [4]: did not significantly alter
platelet adhesion to fibrinogen-coated plates [5]: not significantly altered
platelet adhesion to fibronectin-coated plates [6]: decreased adhesion significantly

thrombin
monocyte differentiation (cells expressing DC markers) [7]: did not cause a discernible difference

C[C@@H]1C[C@H]2[C@@H]3CCC4=CC(=O)C=C[C@]4(C)[C@@]3(F)[C@@H](O)C[C@]2(C)[C@@]1(O)C(=O)CO [dexamethasone]
IL-10 to IL-12p70 ratio, non-transfected MoDC [1]: 15.3
IL-10 to IL-12p70 ratio, transfected with GILZ siRNA [1]: 3.9
IL-10 to IL-12p70 ratio [2]: 67.7
time after treatment at which GILZ is up-regulated ([3]; 100 nM dex): 2 h
GILZ up-regulation, fold change relative to untreated MoDC cultured alone [3]: 4.29 fold

fibrinogen
platelet adhesion to coated plates in flow [8]: highest concentrations of platelets adhered

HHLGGAKQAGDV
platelet adhesion to fibrinogen-coated plates [5]: significantly decreased
platelet adhesion to fibronectin-coated plates [6]: had no effect

COc1c2occc2cc2ccc(=O)oc12 [8-MOP, 8-methoxypsoralen]
ECP-processed lymphocytes apoptotic [9]: 99%
percentage of early apoptotic lymphocytes [10, 13]: 44.3%
percentage of late apoptotic lymphocytes [10, 13]: 33.7%
time after treatment at which lymphocytes display Annexin-V ([10]; 1 J/cm^2 and 100 ng/mL): 2 h
8-MOP concentration needed for an effect on GILZ expression ([3]; 0.5 J/cm^2 UVA): 200 ng/mL
time GILZ remained significantly elevated ([3]; 8-MOP and UVA light (FIG. 10F)): 72 h
GILZ expression increase, combination of 8-MOP and UVA light ([3]; 24 hr, relative to untreated MoDC (FIG. 10E)): 5.5 fold
GILZ expression, 8-MOP alone ([3]; without UVA light, 24 hr (FIG. 10E)): did not effect GILZ expression
percentage of late apoptotic CD11c+ cells ([11]; 1 J/cm^2, all doses of 8-MOP tested): less than 13%
percentage of late apoptotic CD11c+ cells ([11]; 2 J/cm^2, all doses of 8-MOP tested): less than 16%
percentage of early apoptotic CD11c+ cells compared to untreated MoDC ([11]; 2 J/cm^2 and 200 ng/mL): increase
